# Experimental data: patent publication US20230310395A1, “TOPICAL ROFLUMILAST COMPOSITIONS AND USES THEREOF” (Sol-Gel Technologies Ltd., priority 2020, published 2023)
# Columns and labels:
# [1] = system: psoriasis-induced xenotransplants (human skin grafted on beige-SCID mice, injected with PBMC's from psoriatic patients); experiment: Efficacy study in psoriasis-induced human skin xenotransplants on beige-SCID mice, histological evaluation; format: in vivo; conditions: topical treatment for 14 days (Day 42-56), histology at Day 56
# From the text: The objective of this study was to determine the efficacy of Roflumilast as provided herein (at Examples 4 and 5) compared to the vehicle and Dexamethasone as shown at the Table 3. The evaluation was based on histology analysis following application of the respective test formulations.
# The efficacy study has been conducted on female mice. The total duration of the experiment was 8 weeks, upon receiving of the human skin. Normal skin from healthy volunteers were obtained for grafting. Healthy human abdominal skin pieces with a width of 0.4 mm and surface area of 1.5×1.5 cm were provided. The skin sample was preserved in isotonic saline solution and transplanted within 6-12 hours after skin donation. In addition, blood samples were collected from psoriatic patients having classic plaque psoriasis and not undergoing any treatment. 20 mL blood samples were taken from both males and females psoriatic patients (from psoriatic patients having classic plaque psoriasis and not undergoing any treatment), and peripheral blood mononuclear cells (PBMC) were separated immediately after blood withdrawal.
# Mice: Beige-severe combined immunodeficient mice C.B-17/IcrHsdscid-bg (beige-SCID) mice (weight ˜25 g) were included in this study. Mice were monitored twice a week for vital signs such as weight, food intake, coat, eyes, anal genital areas, discharge/soiling, behavior and criteria related to skin transplantation. Normal healthy human donor skin were transplanted onto the beige-SCID mice as previously described (See Keren A. et al., Novel nanosome delivery system combined with siRNA targeting the antimicrobial gene DFB4: a new approach for psoriasis management? Exp Dermatol. 2014; 23:464-465; Bracke S. et al., Targeted silencing of DEFB4 in a bioengineered skin-humanized mouse model for psoriasis: development of siRNA SECosome-based novel therapies. Exp Dermatol. 2014 ;23:199-201; Zaretsky M. et al., Directed evolution of a soluble human IL-17A receptor for the inhibition of psoriasis plaque formation in a mouse model. Chem Biol. 2013 21; 20:202-2; Gilhar A. et al., The beneficial effect of blocking Kv1.3 in the psoriasiform SCID mouse model. J Invest Dermatol. 2011;131:118 124; Keren A. et al., Innate lymphoid cells 3 induce psoriasis in xenotransplanted healthy human skin. J Allergy Clin Immunol. 2018;142:305-308.e6.).
# British Journal of Pharmacology 2010; 159:842-855).
# Four weeks following the engraftment, each mouse was injected (intradermally) with 1×10^7 IL-2 enriched allogeneic PBMC's from psoriatic patients (1×10^7 cells injected/mouse). Cells from different psoriasis patients were equally distributed between treatment groups. Each patient was represented in each treatment group.
# Fourteen days following cells injections, the mice were divided into treatment groups (Table 4, see below) and treated according to the timeline indicated below (see Scheme 1). Each transplant was equally topically treated (50 μg) by using a sterile spatula.
# Dexamethasone (D2915, Sigma): was freshly prepared for each administration by dilution in saline to final concentration (50 mg/ml). Dexamethasone serves as a positive control and was administered topically twice daily for 14 days following cells injections (at Day 42 following human skin transplantation) until the end of the study (Day 56).
# The vehicle was administered topically (50 μg) once daily for 14 days as well.
# On Day 56, the entire skin graft was excised and placed in 10% formaldehyde in saline overnight. Then, the specimens were placed in 70% ethanol and embedded and stained according to the standard Hematoxylin/Eosin protocol.
# Skin graft histological assessment was performed (according to the psoriatic criteria including epidermal thickness) using light microscopy, and two observers blindly performed the evaluations. Epidermal thickness was determined using an ocular micrometer at a minimum of 50 points along the epidermis selected to represent points of maximal and minimal thickness. […]
# [2] = according to the roflumilast DrugBank monograph; cited from earlier work
# [3] = number of grafts/mice out of 10
Structure (SMILES),"Complete Recovery [1, 3]","Partial Recovery [1, 3]","Psoriatic Features [1, 3]",Complete Recovery (%) ([1]; percent of grafts/mice),Partial Recovery (%) ([1]; percent of grafts/mice),Psoriatic Features (%) ([1]; percent of grafts/mice),calculated water solubility [2] [µg/mL]
C[C@@H]1C[C@H]2[C@@H]3CCC4=CC(=O)C=C[C@]4(C)[C@@]3(F)[C@@H](O)C[C@]2(C)[C@@]1(O)C(=O)CO [Dexamethasone],9/10,1/10,0/10,(90%),(10%),(0%),
"O=C(Nc1c(Cl)cncc1Cl)c1ccc(OC(F)F)c(OCC2CC2)c1 [Roflumilast, 3-(cyclopropylmethoxy)-n-(3,5-dichloropyridin-4-yl)-4-(difluoromethoxy)-benzamide]",,,,,,,6.2
